According to PubChem BioAssay AID248 (DTP/NCI, 2004):
Toxic doses and inconclusive results are not listed. No stated cut-off is given here; in the data, active means T/C of 150% or more; inactive means T/C below 125%.

Test system: L1210 leukemia ip in BDF1 mice, survival T/C
Assay: NCI In Vivo Anticancer Drug Screen. Data for tumor model L1210 Leukemia (intraperitoneal) in B6D2F1 (BDF1) mice
Settings: endpoint: mean survival time, higher = longer survival
Outline: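 Survival endpoint. Drug-treated group vs vehicle group, expressed as T divided by C. Tumor passaged by transplantation.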

[1] = dose: 100.0 mg/kg/injection, schedule: Q01DX009 (ip), vehicle: saline with Tween-80
[2] = dose: 50.0 mg/kg/injection, schedule: Q01DX009 (ip), vehicle: Klucel (hydroxypropylcellulose) (HPC)
[3] = dose: 100.0 mg/kg/injection, schedule: Q01DX009 (ip), vehicle: Klucel (hydroxypropylcellulose) (HPC)
[4] = dose: 200.0 mg/kg/injection, schedule: Q01DX009 (ip), vehicle: Klucel (hydroxypropylcellulose) (HPC)
[5] = dose: 100.0 mg/kg/injection, schedule: Q04DX003 (ip), vehicle: Klucel (hydroxypropylcellulose) (HPC)
[6] = dose: 200.0 mg/kg/injection, schedule: Q04DX003 (ip), vehicle: Klucel (hydroxypropylcellulose) (HPC)
[7] = dose: 400.0 mg/kg/injection, schedule: Q04DX003 (ip), vehicle: Klucel (hydroxypropylcellulose) (HPC)
[8] = dose: 400.0 mg/kg/injection, schedule: Q01DX009 (ip), vehicle: Klucel (hydroxypropylcellulose) (HPC)

Measured: T/C

C/C(C/C=N/N=C(N)N)=N\N=C(N)N
inactive: dose: 15.0 mg/kg/injection, schedule: Q01DX Z (ip), vehicle: water 98 % of control | dose: 30.0 mg/kg/injection, schedule: Q01DX Z (ip), vehicle: water 96 % of control | dose: 60.0 mg/kg/injection, schedule: Q01DX Z (ip), vehicle: water 102 % of control | dose: 120.0 mg/kg/injection, schedule: Q01DX Z (ip), vehicle: water 102 % of control | dose: 120.0 mg/kg/injection, schedule: Q01DX Z (oral), vehicle: water 103 % of control | dose: 240.0 mg/kg/injection, schedule: Q01DX Z (oral), vehicle: water 100 % of control | dose: 480.0 mg/kg/injection, schedule: Q01DX Z (oral), vehicle: water 108 % of control | dose: 960.0 mg/kg/injection, schedule: Q01DX Z (oral), vehicle: water 102 % of control

O=[N+]([O-])c1cc(C(F)(F)F)cc([N+](=O)[O-])c1N/N=C/c1ccccc1Cl
inactive: [1] 91 % of control | dose: 200.0 mg/kg/injection, schedule: Q01DX009 (ip), vehicle: saline with Tween-80 95 % of control | dose: 400.0 mg/kg/injection, schedule: Q01DX009 (ip), vehicle: saline with Tween-80 90 % of control

Cc1ccc(S(=O)(=O)NC(C(=O)O)C(C)C)cc1 (stereo not given)
inactive: dose: 100.0 mg/kg/injection, schedule: Q04DX003 (ip), vehicle: saline with Tween-80 102 % of control | dose: 200.0 mg/kg/injection, schedule: Q04DX003 (ip), vehicle: saline with Tween-80 100 % of control | dose: 400.0 mg/kg/injection, schedule: Q04DX003 (ip), vehicle: saline with Tween-80 102 % of control

CN1CCC(CC(=O)O)CC1
inactive: dose: 50.0 mg/kg/injection, schedule: Q01DX009 (ip), vehicle: saline 92 % of control | dose: 100.0 mg/kg/injection, schedule: Q01DX009 (ip), vehicle: saline 92 % of control | dose: 200.0 mg/kg/injection, schedule: Q01DX009 (ip), vehicle: saline 111 % of control

CC(=O)C1=CN(C(C)(C)C)COC1C (stereo not given)
inactive: [2] 104 % of control | [3] 95 % of control | [4] 110 % of control

OCC1OC(n2cnc3c([Se])ncnc32)C(O)C1O (stereo not given)
inactive: dose: 100.0 mg/kg/injection, schedule: Q01DX005 (ip), vehicle: saline 105 % of control

O=C(O)CC(CC(=O)O)n1cccc1
inactive: dose: 75.0 mg/kg/injection, schedule: Q01DX001 (ip), vehicle: acetone 96 % of control | dose: 150.0 mg/kg/injection, schedule: Q01DX001 (ip), vehicle: acetone 91 % of control | dose: 300.0 mg/kg/injection, schedule: Q01DX001 (ip), vehicle: acetone 94 % of control

CCCCCCCCC1OC1CCCCCCCC(=O)N1CCN(C)CC1 (stereo not given)
inactive: dose: 75.0 mg/kg/injection, schedule: Q01DX001 (ip), vehicle: carboxymethylcellulose (CMC) 92 % of control | dose: 150.0 mg/kg/injection, schedule: Q01DX001 (ip), vehicle: carboxymethylcellulose (CMC) 97 % of control | dose: 300.0 mg/kg/injection, schedule: Q01DX001 (ip), vehicle: carboxymethylcellulose (CMC) 91 % of control

Nc1ncnc(N)c1NC(=O)c1ccc(C(=O)c2ccccc2)cc1
inactive: [5] 100 % of control | [6] 94 % of control | [7] 94 % of control

ClC1C2c3ccccc3C(C1Cl)[n+]1ccccc12 (stereo not given)
inactive: dose: 6.25 mg/kg/injection, schedule: Q01DX009 (ip), vehicle: Klucel (hydroxypropylcellulose) (HPC) 109 % of control | dose: 12.5 mg/kg/injection, schedule: Q01DX009 (ip), vehicle: Klucel (hydroxypropylcellulose) (HPC) 98 % of control | dose: 25.0 mg/kg/injection, schedule: Q01DX009 (ip), vehicle: Klucel (hydroxypropylcellulose) (HPC) 94 % of control | dose: 35.0 mg/kg/injection, schedule: Q01DX009 (ip), vehicle: Klucel (hydroxypropylcellulose) (HPC) 95 % of control

CC1(C)c2ccccc2C(=O)C1(Br)Cc1ccccc1 (stereo not given)
inactive: [1] 90 % of control

COC(=O)/C=C(\C)Nc1ccc(C(C)=O)cc1
inactive: dose: 100.0 mg/kg/injection, schedule: Q04DX003 (ip), vehicle: acetone 96 % of control | dose: 200.0 mg/kg/injection, schedule: Q04DX003 (ip), vehicle: acetone 94 % of control | dose: 400.0 mg/kg/injection, schedule: Q04DX003 (ip), vehicle: acetone 94 % of control

OCCCCN1CCCCC1
inactive: dose: 100.0 mg/kg/injection, schedule: Q01DX001 (ip), vehicle: saline 106 % of control | dose: 200.0 mg/kg/injection, schedule: Q01DX001 (ip), vehicle: saline 101 % of control

Nc1ccc(O)c2ccccc12
inactive: dose: 6.25 mg/kg/injection, schedule: Q04DX003 (ip), vehicle: other 97 % of control

CCC(Cc1c[nH]c2ccccc12)[N+](=O)[O-] (stereo not given)
inactive: [3] 104 % of control | [4] 111 % of control | [8] 113 % of control

CCCC[P+](CCCC)(CCCC)C(C)C
inactive: dose: 12.0 mg/kg/injection, schedule: Q01DX009 (ip), vehicle: saline with Tween-80 97 % of control | dose: 25.0 mg/kg/injection, schedule: Q01DX009 (ip), vehicle: saline with Tween-80 97 % of control | dose: 25.0 mg/kg/injection, schedule: Q04DX003 (ip), vehicle: saline with Tween-80 101 % of control | dose: 50.0 mg/kg/injection, schedule: Q04DX003 (ip), vehicle: saline with Tween-80 99 % of control

O=C(N/N=C/c1ccc2c(c1)CCC2)Nc1ccc([N+](=O)[O-])cc1[N+](=O)[O-]
inactive: dose: 100.0 mg/kg/injection, schedule: Q04DX003 (ip), vehicle: saline 91 % of control | dose: 200.0 mg/kg/injection, schedule: Q04DX003 (ip), vehicle: saline 98 % of control | dose: 400.0 mg/kg/injection, schedule: Q04DX003 (ip), vehicle: saline 101 % of control

CCC(C)N1OC1c1ccccc1 (stereo not given)
inactive: dose: 100.0 mg/kg/injection, schedule: Q01DX001 (ip), vehicle: carboxymethylcellulose (CMC) 106 % of control | dose: 200.0 mg/kg/injection, schedule: Q01DX001 (ip), vehicle: carboxymethylcellulose (CMC) 103 % of control | dose: 400.0 mg/kg/injection, schedule: Q01DX001 (ip), vehicle: carboxymethylcellulose (CMC) 101 % of control

C=CCc1cc(Cl)ccc1OCC(=O)O
inactive: dose: 100.0 mg/kg/injection, schedule: Q01DX009 (ip), vehicle: gum acacia 97 % of control | dose: 200.0 mg/kg/injection, schedule: Q01DX009 (ip), vehicle: gum acacia 96 % of control

Cc1cc(C)c(NC(=O)Nc2ccccc2)c(C)c1
inactive: [3] 96 % of control | [5] 98 % of control | [4] 104 % of control | [6] 98 % of control | [8] 95 % of control | [7] 101 % of control

Cc1ccc([N+](=O)[O-])cc1NC(=O)Nc1onc(C)c1C
inactive: [2] 90 % of control | [4] 87 % of control

NCCc1ccc(Nc2ccnc3cc(Cl)ccc23)cc1
inactive: dose: 75.0 mg/kg/injection, schedule: Q01DX001 (ip), vehicle: saline 109 % of control | dose: 150.0 mg/kg/injection, schedule: Q01DX001 (ip), vehicle: saline 101 % of control | dose: 300.0 mg/kg/injection, schedule: Q01DX001 (ip), vehicle: saline 98 % of control

O=[N+]([O-])c1ccc(-n2ncc3cccnc32)c([N+](=O)[O-])c1
inactive: dose: 75.0 mg/kg/injection, schedule: Q01DX001 (ip), vehicle: other 94 % of control | dose: 150.0 mg/kg/injection, schedule: Q01DX001 (ip), vehicle: other 100 % of control | dose: 300.0 mg/kg/injection, schedule: Q01DX001 (ip), vehicle: other 90 % of control
